Source: patent US20250296959A1, “B7-H3 TARGETING PEPTIDES AND CONSTRUCTS THEREOF” (Mariana Oncology Inc., priority 2024, published 2025)
Positions of bridges follow the written chain, without caps; N, C: chain ends. Non-standard residues stand in square brackets, D forms with d. Residues, ends and D or L forms follow the SMILES beside them. *: point of attachment. DOTA = O=C(O)CN1CCN(CC(=O)O)CCN(CC(=O)*)CCN(CC(=O)O)CC1; Phe(4-COOH) = N[C@@H](Cc1ccc(C(=O)O)cc1)C(=O)O; Trp(5-F) = N[C@@H](Cc1c[nH]c2ccc(F)cc12)C(=O)O; PEG8 = NCCOCCOCCOCCOCCOCCOCCOCCOCCC(=O)O; Ala(4-THP) = N[C@@H](CC1CCOCC1)C(=O)O; hLeu = CC(C)CC[C@H](N)C(=O)O; Nle = CCCC[C@H](N)C(=O)O

molecular target: T1, human 4lg B7-H3 (Homo sapiens, UniProt Q5ZPR3); assay: Affinity determination by surface plasmon resonance (SPR) to 4Ig B7-H3; settings: SPR KD—25° C., 4Ig B7-H3; 25° C. flow cell temperature
T1 sequence (Q5ZPR3 29-534): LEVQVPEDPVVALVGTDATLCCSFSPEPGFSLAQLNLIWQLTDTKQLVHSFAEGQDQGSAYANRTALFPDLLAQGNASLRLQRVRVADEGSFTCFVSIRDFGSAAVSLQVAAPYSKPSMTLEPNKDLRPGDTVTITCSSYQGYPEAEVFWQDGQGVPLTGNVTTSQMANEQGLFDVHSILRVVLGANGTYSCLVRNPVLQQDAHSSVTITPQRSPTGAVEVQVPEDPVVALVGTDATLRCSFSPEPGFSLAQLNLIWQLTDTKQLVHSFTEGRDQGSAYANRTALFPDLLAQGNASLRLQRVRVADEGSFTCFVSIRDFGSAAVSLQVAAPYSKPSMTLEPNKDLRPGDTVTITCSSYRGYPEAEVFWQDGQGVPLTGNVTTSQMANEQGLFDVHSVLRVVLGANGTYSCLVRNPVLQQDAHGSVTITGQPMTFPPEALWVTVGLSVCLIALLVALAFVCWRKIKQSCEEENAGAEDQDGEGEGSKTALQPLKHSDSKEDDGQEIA

First: CCCC[C@@H]1NC(=O)[C@H](C(C)C)NC(=O)[C@H](CC(=O)O)NC(=O)[C@H](Cc2ccc(C(=O)O)cc2)NC(=O)[C@H](CCCCN)NC(=O)CNC(=O)[C@H](C(C)C)NC(=O)[C@@H](NC(=O)[C@H](Cc2ccc(O)cc2)NC(=O)[C@H](CCC(C)C)NC(C)=O)CSSC[C@@H](C(=O)N[C@@H](Cc2c[nH]c3ccc(F)cc23)C(=O)N[C@@H](Cc2ccccc2)C(=O)N2CCC[C@H]2C(=O)N[C@H](CCCCNC(=O)CN2CCN(CC(=O)O)CCN(CC(=O)O)CCN(CC(=O)O)CC2)C(N)=O)NC1=O [compound 287, Ac-hLeu-Y-C-V-G-K-4COOHPhe-D-V-Nle-C-5FW-F-Pro-dLys(DOTA)-CONH2] (Ac-[hLeu]YCVGK[Phe(4-COOH)]DV[Nle]C[Trp(5-F)]FP[dK](DOTA)-NH2; disulfide 3-11)
Second: CC(=O)N[C@@H](CCC(C)C)C(=O)N[C@@H](Cc1ccc(O)cc1)C(=O)N[C@H]1CSSC[C@@H](C(=O)N[C@@H](Cc2c[nH]c3ccc(F)cc23)C(=O)N[C@@H](Cc2ccccc2)C(=O)N2CCC[C@H]2C(=O)N[C@H](CCCCNC(=O)CN2CCN(CC(=O)O)CCN(CC(=O)O)CCN(CC(=O)O)CC2)C(N)=O)NC(=O)[C@H](Cc2ccc(O)cc2)NC(=O)[C@H](C(C)C)NC(=O)[C@H](CC(=O)O)NC(=O)[C@H](Cc2ccc(C(=O)O)cc2)NC(=O)[C@H](CCCCN)NC(=O)CNC(=O)[C@H](C(C)C)NC1=O [compound 291, Ac-hLeu-Y-C-V-G-K-4COOHPhe-D-V-Y-C-5FW-F-Pro-dLys(DOTA)-CONH2] (Ac-[hLeu]YCVGK[Phe(4-COOH)]DVYC[Trp(5-F)]FP[dK](DOTA)-NH2; disulfide 3-11)
The Kd of the first is higher: 10 to 100 nM for the first, < 1 nM for the second. The second binds more tightly here.

First: CC(=O)N[C@@H](CCC(C)C)C(=O)N[C@@H](Cc1ccc(O)cc1)C(=O)N[C@H]1CSSC[C@@H](C(=O)N[C@@H](Cc2c[nH]c3ccc(F)cc23)C(=O)N[C@@H](Cc2ccccc2)C(=O)N2CCC[C@H]2C(N)=O)NC(=O)[C@H](Cc2ccc(O)cc2)NC(=O)[C@H](C(C)C)NC(=O)[C@H](CC(=O)O)NC(=O)[C@H](Cc2ccc(C(=O)O)cc2)NC(=O)[C@H](CCCCNC(=O)CN2CCN(CC(=O)O)CCN(CC(=O)O)CCN(CC(=O)O)CC2)NC(=O)CNC(=O)[C@H](C(C)C)NC1=O [compound 289, Ac-hLeu-Y-C-V-G-Lys(DOTA)-4COOHPhe-D-V-Y-C-5FW-F-Pro-CONH2] (Ac-[hLeu]YCVGK(DOTA)[Phe(4-COOH)]DVYC[Trp(5-F)]FP-NH2; disulfide 3-11)
Second: CC(=O)N[C@@H](CCC(C)C)C(=O)N[C@@H](Cc1ccc(O)cc1)C(=O)N[C@H]1CSSC[C@@H](C(=O)N[C@@H](Cc2c[nH]c3ccc(F)cc23)C(=O)N[C@@H](Cc2ccccc2)C(=O)N2CCC[C@H]2C(=O)O)NC(=O)[C@H](Cc2ccc(O)cc2)NC(=O)[C@H](C(C)C)NC(=O)[C@H](CC(=O)O)NC(=O)[C@H](Cc2ccc(C(=O)O)cc2)NC(=O)[C@H](CCCCNC(=O)CN2CCN(CC(=O)O)CCN(CC(=O)O)CCN(CC(=O)O)CC2)NC(=O)CNC(=O)[C@H](C(C)C)NC1=O [compound 290, Ac-hLeu-Y-C-V-G-Lys(DOTA)-4COOHPhe-D-V-Y-C-5FW-F-Pro-COOH] (Ac-[hLeu]YCVGK(DOTA)[Phe(4-COOH)]DVYC[Trp(5-F)]FP-OH; disulfide 3-11)
The Kd of the first is lower: 1 to 10 nM for the first, 100 to 300 nM for the second. The first binds more tightly here.

First: CC(=O)N[C@@H](CCC(C)C)C(=O)N[C@@H](Cc1ccc(O)cc1)C(=O)N[C@H]1CSSC[C@@H](C(=O)N[C@@H](Cc2c[nH]c3ccc(F)cc23)C(=O)N[C@@H](Cc2ccccc2)C(=O)N2CCC[C@H]2C(N)=O)NC(=O)[C@H](Cc2ccc(O)cc2)NC(=O)[C@H](C(C)C)NC(=O)[C@H](CC(=O)O)NC(=O)[C@H](CC2CCOCC2)NC(=O)[C@H](CCCCNC(=O)CN2CCN(CC(=O)O)CCN(CC(=O)O)CCN(CC(=O)O)CC2)NC(=O)CNC(=O)[C@H](C(C)C)NC1=O [compound 292, Ac-hLeu-Y-C-V-G-Lys(DOTA)-ThpA-D-V-Y-C-5FW-F-Pro-CONH2] (Ac-[hLeu]YCVGK(DOTA)[Ala(4-THP)]DVYC[Trp(5-F)]FP-NH2; disulfide 3-11)
Second: CCCC[C@@H]1NC(=O)[C@H](C(C)C)NC(=O)[C@H](CC(=O)O)NC(=O)[C@H](Cc2ccc(C(=O)O)cc2)NC(=O)[C@H](CCCCN)NC(=O)CNC(=O)[C@H](C(C)C)NC(=O)[C@@H](NC(=O)[C@H](Cc2ccc(O)cc2)NC(=O)[C@H](CCC(C)C)NC(=O)CCOCCOCCOCCOCCOCCOCCOCCOCCNC(=O)CN2CCN(CC(=O)O)CCN(CC(=O)O)CCN(CC(=O)O)CC2)CSSC[C@@H](C(=O)N[C@@H](Cc2c[nH]c3ccc(F)cc23)C(=O)N[C@@H](Cc2ccccc2)C(=O)N2CCC[C@H]2C(N)=O)NC1=O [compound 293, DOTA-PEG8-hLeu-Y-C-V-G-K-4COOHPhe-D-V-Nle-C-5FW-F-Pro-CONH2] ({DOTA-PEG8}-[hLeu]YCVGK[Phe(4-COOH)]DV[Nle]C[Trp(5-F)]FP-NH2; disulfide 3-11)
The Kd of the first is lower: 1 to 10 nM for the first, 10 to 100 nM for the second.
